Measurements as given in patent publication EP4818177A1, “TRICYCLIC DERIVATIVE INHIBITOR, AND PREPARATION METHOD AND USE THEREFOR” (Shanghai Hansoh Biomedical Co., Ltd., priority 2023, dated 2025).

Tests used:
[1] = target: T1, PRMT5/MEP50-MTA protein complex (Homo sapiens, UniProt O14744); experiment: Thermal shift assay: change in melting temperature of the PRMT5/MEP50-MTA protein complex; assay type: binding; details: compound 8 µM, PRMT5/MEP50 2 µM, MTA 2 µM; Tm minus DMSO vehicle control
T1 construct: purchased Viva Biotech
T1 sequence (O14744 whole entry): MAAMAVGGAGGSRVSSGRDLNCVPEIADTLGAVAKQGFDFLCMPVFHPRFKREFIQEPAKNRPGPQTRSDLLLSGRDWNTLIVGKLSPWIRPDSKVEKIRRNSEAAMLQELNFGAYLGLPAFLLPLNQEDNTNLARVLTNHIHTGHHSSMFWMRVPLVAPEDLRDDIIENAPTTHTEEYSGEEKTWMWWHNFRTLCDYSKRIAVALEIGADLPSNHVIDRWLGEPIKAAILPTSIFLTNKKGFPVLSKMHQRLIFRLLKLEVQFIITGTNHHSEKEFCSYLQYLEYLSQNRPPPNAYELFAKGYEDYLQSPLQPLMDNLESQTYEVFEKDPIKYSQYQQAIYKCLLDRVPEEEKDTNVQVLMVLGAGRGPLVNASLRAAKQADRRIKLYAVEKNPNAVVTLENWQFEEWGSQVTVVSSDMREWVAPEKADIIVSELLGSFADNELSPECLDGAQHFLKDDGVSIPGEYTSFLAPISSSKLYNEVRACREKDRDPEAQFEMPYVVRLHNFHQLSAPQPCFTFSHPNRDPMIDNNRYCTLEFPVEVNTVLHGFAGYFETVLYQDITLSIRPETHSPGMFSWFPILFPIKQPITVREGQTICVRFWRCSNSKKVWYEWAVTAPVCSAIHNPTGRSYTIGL
T1 sequence (Q9BQA1 whole entry partner): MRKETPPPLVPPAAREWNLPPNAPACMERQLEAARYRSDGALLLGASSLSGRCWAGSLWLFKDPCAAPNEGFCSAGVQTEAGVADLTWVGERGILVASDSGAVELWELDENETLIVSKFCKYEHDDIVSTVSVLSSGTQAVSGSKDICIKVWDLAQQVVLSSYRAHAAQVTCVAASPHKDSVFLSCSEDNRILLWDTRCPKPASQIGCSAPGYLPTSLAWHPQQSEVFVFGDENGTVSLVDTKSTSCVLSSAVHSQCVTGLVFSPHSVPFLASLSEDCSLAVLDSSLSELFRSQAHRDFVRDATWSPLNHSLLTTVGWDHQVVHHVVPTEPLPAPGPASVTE
Excerpt: Test Example 1: Determination of the ability of the compounds of the present invention to improve the thermal stability (melting temperature) of the PRMT5/MEP50-MTA protein complex.
1. Experimental objective: The objective of this test example is to determine the ability of the compound to improve the thermal stability of the PRMT5/MEP50-MTA protein complex, resulting in an increase in the protein melting temperature. 2. Experimental instruments: Quantitative PCR instrument (Quantstudio6 Flex) was purchased from Life Technologies; pipettes were purchased from Eppendorf or Rainin. 3. Experimental reagents and consumables: PRMT5/MEP50 protein was prepared by Viva Biotech; HEPES was purchased from Thermo Fisher Scientific (Cat. No. 15630080); DTT was purchased from Sigma (Cat. No. 43816-10ml); sodium chloride was purchased from Invitrogen (Cat. No. AM9760G); Protein Thermal Shift™ Dye Kit was purchased from Thermo Fisher Scientific (Cat. No. 4461146); methylthioadenosine (MTA) was purchased from Sigma (Cat. No. D5011). 4. Experimental methods: In this experiment, the thermal shift method was used to measure the change in the melting temperature (Tm) of the PRMT5/MEP50-MTA protein complex before and after compound binding, thereby characterising the ability of the compound to improve the thermal stability of the PRMT5/MEP50-MTA protein complex. A solution containing 50 mM HEPES, 10 mM DTT, 2 µM MTA, SYPRO Orange and 250 mM NaCl was prepared as the experimental buffer. Human PRMT5/MEP50 protein was added to a final concentration of 2 µM, and the mixture was incubated at room temperature for 30 minutes. The above reaction mixture was aliquoted into 8-strip PCR tubes at 19.5 µL per tube. Then 0.5 µL of test compound or DMSO was added to each tube, providing a total reaction volume of 20 µL and a final compound concentration of 8 µM. 2.5% DMSO was set as the vehicle control. After incubation at room temperature for 10 minutes, the PCR tubes were placed in a PCR instrument, and the melt curve function was selected to measure the melting temperature of the PRMT5/MEP50-MTA protein complex in different treatment groups (heated from 25°C to 95°C, 0.03°C/s). 5. Experimental data processing method: The experimental data files from the PCR instrument were imported into the thermal shift software to obtain the melting temperature (Tm) for each treatment group.

[2] = system: MTAP Knockout HCT116 cells; experiment: Cell proliferation inhibition (CellTiter-Glo), MTAP knockout cells; assay type: cell-based; details: for Selectivity: HCT116 versus MTAP Knockout HCT116; for IC50: Homo sapiens, HCT-116, MTAP Knockout HCT116 cells, 72-240 hours incubation, CellTiter-Glo
Excerpt: (§1) Test Example 2: Determination of the inhibitory effect of the compounds of the present invention on the proliferation activity of HCT116 and MTAP Knockout HCT116 cells.
(§2) 1. Experimental objective: to determine the inhibitory effect of the compound on the proliferation activity of HCT116 wild-type and HCT116 MTAP knockout cells. 2. Experimental instruments: Centrifuge (Eppendorf 5810R); microplate reader (BioTek Synergy H1 or PerkinElmer Envision); pipette (Eppendorf or Rainin). 3. Experimental reagents: HCT116 and MTAP Knockout HCT116 cells were purchased from Nanjing Cobioer; Cell Titer-Glo was purchased from Promega (Cat. No. G7573); McCoy' 5A was purchased from Gibco (Cat. No. 12330031); FBS was purchased from Gibco (Cat. No. 10091148); PBS was purchased from Gibco (Cat. No. 10010023); trypsin was purchased from Gibco (Cat. No. 25200056); cell culture plates were purchased from Corning (Cat. No. 3610). 4. Experimental methods: HCT116 and MTAP Knockout HCT116 cells were cultured in McCoy'5A medium containing 10% FBS until an appropriate cell density was reached. The cells were then collected and adjusted to a suitable concentration using complete medium. The cell suspension was seeded into a 96-well plate at 90 µL per well and allowed to adhere overnight in a 37°C, 5% CO2 incubator. Compound solutions of various concentrations were prepared using DMSO and culture medium, with a vehicle control set. The compound solutions were added to the 96-well plate at 10 µL per well, and the plate was incubated in a 37°C, 5% CO2 incubator for an additional 72-240 hours. After incubation, CellTiter-Glo solution was added, and the mixture was mixed uniformly by shaking, followed by incubation in the dark for 10 to 30 minutes. Luminescence was measured using a Synergy H1 or Envision microplate reader. 5. Experimental data processing method: The inhibition rate was calculated using the luminescence signal values, and the concentrations along with the inhibition rates were subjected to non-linear regression curve fitting using Graphpad Prism software to obtain the IC50 values.

[3] = system: HCT116 wild-type cells; experiment: Cell proliferation inhibition (CellTiter-Glo), wild-type cells; assay type: cell-based; details: Homo sapiens, HCT-116, HCT116 wild-type cells, 72-240 hours incubation
Excerpt: as §1, §2

Row | SMILES | ΔTm at 8 µM [1] | Selectivity [2] | IC50 [2] | IC50 [3]
1 | Cc1cc2nc(N)c3cncn3c2cc1C(=O)N(C)C1COCc2c1ccn1c(C(F)(F)F)cnc21 (stereo not drawn) [Example 62, 4-Amino-N,7-dimethyl-N-(3-(trifluoromethyl)-7,10-dihydro-8H-imidazo[1,2-a]pyrano[3,4-c]pyridin-7-yl)imidazo[1,5-a]quinoxaline-8-carboxamide] | 12.5 °C | 113 | 7.2 nM | 808 nM
2 | CN(C(=O)c1ccc2nc(N)c3cnn(C)c3c2c1)C1COCc2c1ccn1c(C(F)(F)F)cnc21 (stereo not drawn) [Example 83, 4-Amino-N,1-dimethyl-N-(3-(trifluoromethyl)-7,10-dihydro-8H-imidazo[1,2-a]pyrano[3,4-c]pyridin-7-yl)-1H-pyrazolo[4,3-c]quinoline-8-carboxamide] | 11.8 °C | 164 | 4.8 nM | 790 nM
3 | CCNN(C(=O)c1cc2c(cc1C)nc(N)c1cncn12)C1COCc2nc(C(F)(F)F)ccc21 (stereo not drawn) [Example 277, 4-Amino-N'-ethyl-7-methyl-N-(2-(trifluoromethyl)-5,8-dihydro-6H-pyrano[3,4-b]pyridin-5-yl)imidazo[1,5-a]quinoxaline-8-carbohydrazide] | 12.9 °C | 17 | 12 nM | 207 nM
4 | CNN(C(=O)c1cc2c(cc1F)nc(N)c1cncn12)C1COCc2c1ccn1c(C(F)(F)F)cnc21 (stereo not drawn) [Example 282, 4-Amino-7-fluoro-N'-methyl-N-(3-(trifluoromethyl)-7,10-dihydro-8H-imidazo[1,2-a]pyrano[3,4-c]pyridin-7-yl)imidazo[1,5-a]quinoxaline-8-carbohydrazide] | 12.3 °C | 145 | 17 nM | 2450 nM
5 | CNN(C(=O)c1cc2c3c(c(N)nc2cc1C)COC3)C1COCc2nc(C(F)(F)F)ccc21 (stereo not drawn) [Example 307, 4-Amino-7-methyl-N'-methyl-N-(2-trifluoromethyl-5,8-dihydro-6H-pyrano[3,4-b]pyridin-5-yl)-1,3-dihydrofuro[3,4-c]quinoline-8-carbohydrazide] | 12.7 °C | 73 | 15 nM | 1060 nM
6 | [2H]C([2H])([2H])NN(C(=O)c1ccc2nc(N)c3cnn(C)c3c2c1)C1([2H])COCc2nc(C(F)(F)F)ccc21 (stereo not drawn) [Example 324, 4-Amino-N-[5-deuterio-2-(trifluoromethyl)-6,8-dihydropyrano[3,4-b]pyridin-5-yl]-1-methyl-N'-(trideuteriomethyl)pyrazolo[4,3-c]quinoline-8-hydrazide] | 11.1 °C | 155 | 15 nM | 2380 nM
7 | [2H]C([2H])([2H])NN(C(=O)c1cc2c3c(c(N)nc2cn1)COC3)[C@@]1([2H])COCc2c1ccn1c(C(F)(F)F)cnc21 [Example 354-P1, (R)-4-amino-N'-(methyl-d3)-N-(3-(trifluoromethyl)-7,10-dihydro-8H-imidazo[1,2-a]pyrano[3,4-c]pyridin-7-yl-7-d)-1,3-dihydrofuro[3,4-c][1,7]naphthyridine-8-carbohydrazide] | 11.6 °C | 107 | 23 nM | 2470 nM
8 | CNN(C(=O)c1ccc2nc(N)c3cnn(C)c3c2c1)C1COCc2nc(S(F)(F)(F)(F)F)ccc21 (stereo not drawn) [Example 448] | 12.3 °C | 44 | 7.8 nM | 344 nM
9 | CNN(C(=O)c1cc2c(cc1C)nc(N)c1cnn(C)c12)C1COc2cc(S(F)(F)(F)(F)F)ccc21 (stereo not drawn) [Example 451, 4-Amino-N',1,7-trimethyl-N-(6-(pentafluorosulphanyl)-2,3-dihydrobenzofuran-3-yl)-1H-pyrazolo[4,3-c]quinoline-8carbohydrazide] | 13.7 °C | 21 | 4.2 nM | 89 nM
